From patent US12692288B2, “Crystalline and liquid crystalline 25-hydroxy-cholest-5-en-3-sulfate sodium and methods for preparing same” (Medicis Pharmaceutical Corporation, priority 2019, dated 2026)

What was measured:
Format in all cases: physicochemical
[1] = Dynamic vapor sorption/desorption (DVS), VTI SGA-100; conditions: for form of material recovered after DVS, by XRPD: after sorption/desorption 5% to 95% RH
Method: Moisture sorption/desorption data were collected on a VTI SGA-100 Vapor Sorption Analyzer. NaCl and PVP were used as calibration standards. Samples were not dried prior to analysis. […] The equilibrium criterion used for analysis was less than 0.0100% weight change in 5 minutes with a maximum equilibration time of 3 hours. Data were not corrected for the initial moisture content of the samples.

[2] = Dynamic Vapor Sorption test (SMS DVS Intrinsic), Example 23; conditions: 25° C.
Method: Dynamic Vapor Sorption (DVS) was measured using an SMS (Surface Measurement Systems) DVS Intrinsic. [table]

[3] = Water activity slurries in aqueous solvent mixtures, solid phase by XRPD
From the text: The effect of water activity (aw) on the hydration state can be investigated through competitive water activity trituration experiments (slurries) in various aqueous solvent mixtures. The resulting solid phase can be characterized by x-ray powder diffraction. The experiments can establish the physically stable form at various aw. Water activity can also be related to relative humidity in that RH %=aw×100. Therefore, it is possible to directly relate the stability of an anhydrous/hydrate system in slurry experiments to solid-state stability. The slurry technique at controlled water activities can provide an accurate method of rapidly predicting the physically stable form in anhydrous/hydrate systems. […] The times, temperatures, and humidity are approximate. As with Table 1, the term “B” means birefringent when viewed by polarized light microscopy with cross polars.
Solutions were prepared by adding enough solids to a given solvent so that excess solids were present. The mixture was then agitated in a sealed vial at either ambient or elevated temperature. After a given amount of time, the solids were isolated for analysis.

[4] = Physical stability of forms on exposure to humidity, temperature or vacuum, by XRPD
From the text: X-ray powder diffraction patterns were collected with a PANalytical X'Pert PRO MPD or PANalytical Empyrean diffractometer using an incident beam of Cu radiation produced using a long, fine-focus source. An elliptically graded multilayer mirror was used to focus Cu Kα x-rays through the specimen and onto the detector. […] A specimen of the sample was sandwiched between 3-μm-thick films and analyzed in transmission geometry. A beam-stop, short anti-scatter extension, and anti-scatter knife edge were used to minimize the background generated by air. Soller slits for the incident and diffracted beams were used to minimize broadening and asymmetry from axial divergence. Diffraction patterns were collected using a scanning position-sensitive detector (X'Celerator) located 240 mm from the specimen and Data Collector software v. 2.2b or 5.5. All images were produced with the instrument labeled as X'Pert PRO MPD regardless of the instrument used.
X-ray powder diffraction patterns were collected with a PANalytical X'Pert PRO MPD diffractometer using an incident beam of Cu Kα radiation produced using a long, fine-focus source and a nickel filter. The diffractometer was configured using the symmetric Bragg—Brentano geometry. […] A specimen of the sample was packed in a well. Anti-scatter slits were used to minimize the background generated by air. Soller slits for the incident and diffracted beams were used to minimize broadening from axial divergence. Diffraction patterns were collected using a scanning position-sensitive detector (X'Celerator) located 240 mm from the sample and Data Collector software v. 2.2b.

[5] = Variable humidity XRPD (VH-XRPD); conditions: for time to complete dehydration/conversion to Form XIII: exposure to 0% RH
From the text: (§1) X-ray powder diffraction patterns were collected with a PANalytical X'Pert PRO MPD diffractometer using an incident beam of Cu Kα radiation produced using a long, fine-focus source and a nickel filter. The diffractometer was configured using the symmetric Bragg—Brentano geometry. Data were collected and analyzed using Data Collector software v. 2.2b. […] A specimen of the sample was packed in a nickel-coated copper well. Antiscatter slits were used to minimize the background generated by air. Soller slits for the incident and diffracted beams were used to minimize broadening from axial divergence. Diffraction patterns were collected using a scanning position-sensitive detector (X'Celerator) located 240 mm from the sample and Data Collector software v. 2.2b.
An Anton Paar temperature-humidity chamber (THC) was used to collect in-situ x-ray powder diffraction patterns as a function of humidity. The temperature of the specimen was controlled with a Peltier thermoelectric device located directly under the specimen holder and monitored with a platinum-100 resistance sensor located in the specimen holder. The thermoelectric device was powered and controlled by an Anton Paar TCU 50 interfaced with Data Collector software.
The humidity was generated with an RH-200 manufactured by VTI Inc. and carried by a flow of nitrogen gas. The humidity and temperature were monitored by a Rotronic HygroClip sensor located next to the specimen inside the THC.

[6] = Variable temperature XRPD (VT-XRPD)
From the text: as §1, with “air scattering.” for “air.”, “sample.” for “sample and Data Collector software v. 2.2b.”
An Anton Paar TTK 450 stage was used to collect in-situ x-ray powder diffraction patterns as a function of temperature. The sample was heated with a resistance heater located directly under the sample holder, and the temperature was monitored with a platinum-100 resistance sensor located in the specimen holder. The heater was powered and controlled by an Anton Paar TCU 100 interfaced with Data Collector software.

[7] = from 5 to 25% RH, screening material, mixture of Form I and Form II
[8] = from 25 to 85% RH, screening material, mixture of Form I and Form II

For C[C@H](CCCC(C)(C)O)[C@H]1CCC2C3CC=C4C[C@@H](OS(=O)(=O)[O-])CC[C@]4(C)C3CC[C@@]21C.[Na+] (stereo partly drawn) [25HC3S sodium, Sodium [(3S,10R,13R,17R)-17-[(1R)-5-hydroxy-1,5-dimethyl-hexyl]-10,13-dimethyl-2,3,4,7,8,9,11,12,14,15,16,17-dodecahydro-1H-cyclopenta[a]phenanthren-3-yl] sulfate], which “form of material recovered after DVS, by XRPD” value [1] is on record?
Its value is “predominantly Form I with an additional peak near 8.8°”.

What about the “water corresponding to weight gain (DVS)” value [1, 7] of the same compound?
Its value is 1.5 mol/mol water.

What about the “weight gain (DVS)” value [1, 7] of the same compound?
The value was “approximately 5 wt %”.

And the “water corresponding to weight gain (DVS)” value [1, 8]?
Its value is 1.8 mol/mol water.

What about the “weight gain (DVS)” value [1, 8] of the same compound?
The value was about 6 wt %.

What about the “weight gain (DVS)” value ([1]; from 85 to 95% RH) of the same compound?
The value was about 6 wt %.

And the “hygroscopicity (DVS isotherm)” value ([1]; screening material, mixture of Form I and Form II)?
Its value is “hygroscopic”.

What about the “hygroscopicity (DVS test)” value [2] of the same compound?
The value was “hygroscopic”.

What about the moisture reversibly absorbed ([2]; below 30% RH) of the same compound?
The moisture reversibly absorbed was 7.0%.

And the water absorbed ([2]; by 95% RH)?
The water absorbed was 8.5%.

What about the “Result (form) of water activity slurry” value ([3]; 0.73 aw, 94:06 ACN/H2O, 8 days, approximately room temperature) of the same compound?
Its value is “I +”.

And the “Result (form) of water activity slurry” value ([3]; combination of samples from 0.5 aw and 0.38 aw, 56 days, filtered and dried under N2 for 30 min.)?
Its value is “I +”.

And the “form after humidity exposure, by XRPD” value ([4]; 75% RH for 10 days, screening material, mixture of Form I and Form II)?
Its value is “predominately Form I and two additional peaks near 4.4°2θ and 8.8°2θ”.

And the “form after heat exposure, by XRPD” value ([4]; briefly exposed to 130° C., screening material, mixture of Form I and Form II)?
Its value is “mixture of Forms I, II, and XIII”.

What does the source list for C[C@H](CCCC(C)(C)O)[C@H]1CC[C@H]2[C@@H]3CC=C4C[C@@H](OS(=O)(=O)[O-])CC[C@]4(C)[C@H]3CC[C@]12C.[Na+] [Form I, 25HC3S sodium]?
water activity above which Form I is believed to form liquid crystal Form V [3]: above 0.73 aw; behaviour upon exposure to 0% RH ([5]; 0% RH): dehydrate within minutes to Form XIII; time to complete dehydration/conversion to Form XIII [5]: 20 min; temperature by which decomposition product trisodium hydrogen disulfate, Na3H(SO4)2, was evident [6]: ≤ 170 °C; form shown after dehydration by heating ([6]; heating to 170° C. and then dropping to 135° C.): Form XIII; hygroscopicity [4]: hygroscopic; form change on drying ([4]; exposure to either 0% RH or 70° C. under vacuum): dehydrated Form I to Form XIII

For C[C@H](CCCC(C)(C)O)[C@H]1CC[C@H]2[C@@H]3CC=C4C[C@@H](OS(=O)(=O)[O-])CC[C@]4(C)[C@H]3CC[C@]12C.[Na+] [Form II, 25HC3S sodium], which “water accommodated in fully hydrated state” value ([1]; DVS sorption isotherm at 85% RH (FIG. 16)) is on record?
Its value is “approximately 3 mol/mol of water”.

And the “form of material recovered after DVS, by XRPD” value [1]?
Its value is “mixture of Form II and Form V”.

What about the “water corresponding to weight gain (DVS)” value ([1]; from 5 to 55% RH) of the same compound?
Its value is 1 mol/mol water.

And the “weight gain (DVS)” value ([1]; from 5 to 55% RH)?
Its value is “approximately 3.5 wt %”.

And the “water corresponding to weight gain (DVS)” value ([1]; from 55 to 85% RH)?
The value was 2 mol/mol water.

What about the “weight gain (DVS)” value ([1]; from 55 to 85% RH) of the same compound?
Its value is about 7 wt %.

What about the “weight gain (DVS)” value ([1]; from 85 to 95% RH) of the same compound?
The value was about 7 wt %.

What about the “form change in variable humidity XRPD” value ([5]; ambient temperature, 0% to 85% RH) of the same compound?
The value was “a form change did not occur”.

And the “form observed by XRPD at elevated temperature” value ([6]; 135° C.)?
The value was “still observed”.

What about the “relative humidity of exposure at which the form converts to Form V” value [4] of the same compound?
Its value is at least 75 % RH.

What about the “time to conversion to Form V” value ([4]; exposure to 75% RH) of the same compound?
The value was “up to 35 days”.

And the “form stability by XRPD” value ([4]; stored at 0% RH for up to 35 days)?
Its value is “remained unchanged”.

What about the “form stability by XRPD” value ([4]; under dry nitrogen for up to 4 days) of the same compound?
The value was “remained unchanged”.

Which “form change on heating” value ([4]; 58° C. and vacuum overnight, or 130° C.) does the source give for C[C@H](CCCC(C)(C)O)[C@H]1CC[C@H]2[C@@H]3CC=C4C[C@@H](OS(=O)(=O)[O-])CC[C@]4(C)[C@H]3CC[C@]12C.[Na+] [Form III, 25HC3S sodium] here?
The value was “desolvates to another anhydrous form, Form IX”.

And the “form change at ambient conditions” value [4]?
The value was “desolvates to Form II”.

Which results are given for C[C@H](CCCC(C)(C)O)[C@H]1CC[C@H]2[C@@H]3CC=C4C[C@@H](OS(=O)(=O)[O-])CC[C@]4(C)[C@H]3CC[C@]12C.[Na+] [Form V, 25HC3S sodium]?
water activity of aqueous solvent mixture slurries from which the form resulted [3]: above 0.73 aw; physical stability by XRPD ([4]; exposure to 55° C. and vacuum for 1 day): remained Form V; physical stability by XRPD ([4]; storage at ambient conditions for 25 days): no changes observed

For C[C@H](CCCC(C)(C)O)[C@H]1CC[C@H]2[C@@H]3CC=C4C[C@@H](OS(=O)(=O)[O-])CC[C@]4(C)[C@H]3CC[C@]12C.[Na+] [Form XIII, 25HC3S sodium], which “relative humidity before which Form XIII hydrates to Form I” value ([5]; increasing humidity) is on record?
The value was under 25 % RH.

What about the “form change at ambient conditions” value [4] of the same compound?
Its value is “quickly hydrates to Form I”.

What does the source list for C[C@H](CCCC(C)(C)O)[C@H]1CC[C@H]2[C@@H]3CC=C4C[C@@H](OS(=O)(=O)[O-])CC[C@]4(C)[C@H]3CC[C@]12C.[Na+] [Forms I+XIII, 25HC3S sodium]?
time to complete dehydration/conversion to Form XIII [5]: ≤ 20 min; form change on exposure to humidity ([5]; isolated at 15% RH, exposed to 25% RH, held minimum one hour): converted to Form I
